Results reported in ChEMBL document CHEMBL1201862, “PubChem BioAssay data set” (2004).
Values joined by “and” are separate entries in the source; they are usually repeats but may differ in a detail not shown here. Equal values may be shown once.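 Results reflect a 48-hour exposure of cells in 96-well plates to compound at five concentrations. Here, GI50 denotes the concentration required for 50% inhibition of growth.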 Active and inactive are the calls of the source. No stated cut-off is given here; in the data, active = GI50 up to about 1.1 µM and inactive = higher.

Tests used:
Test in all cases: inhibition of tumour cell growth, NCI panel, 48 h
[1] = system: 786-0
[2] = system: A549
[3] = system: ACHN
[4] = system: COLO 205
[5] = system: EKVX
[6] = system: HCT-116
[7] = system: HOP-62
[8] = system: KM12
[9] = system: NCI-H460
[10] = system: NCI/ADR-RES
[11] = system: OVCAR-4
[12] = system: PC-3
[13] = system: RPMI-8226
[14] = system: SK-MEL-5
[15] = system: SK-OV-3
[16] = system: UO-31
[17] = system: HT-29
[18] = system: IGROV-1
[19] = system: K562
[20] = system: MDA-MB-231

| SMILES | GI50 [1] | GI50 [2] | GI50 [3] | GI50 [4] | GI50 [5] | GI50 [6] | GI50 [7] | GI50 [8] | GI50 [9] | GI50 [10] | GI50 [11] | GI50 [12] | GI50 [13] | GI50 [14] | GI50 [15] | GI50 [16] | GI50 [17] | GI50 [18] | GI50 [19] | GI50 [20] |
| --- | --- | --- | --- | --- | --- | --- | --- | --- | --- | --- | --- | --- | --- | --- | --- | --- | --- | --- | --- | --- |
| C[C@@H]1C(=O)O[C@H]1[C@H](O)CO | > 100 µM (inactive) | > 100 µM (inactive) | > 100 µM (inactive) | > 100 µM (inactive) | > 100 µM (inactive) | > 100 µM (inactive) | > 100 µM (inactive) | > 100 µM (inactive) | > 100 µM (inactive) | > 100 µM (inactive) | > 100 µM (inactive) | > 100 µM (inactive) | 94.2 µM (inactive) | > 100 µM (inactive) | > 100 µM (inactive) | > 10 µM (inactive) | – | – | – | – |
| FC(F)(F)c1nc(Br)[nH]c1C(F)(F)F | > 100 µM (inactive) | > 100 µM (inactive) | > 100 µM (inactive) | > 100 µM (inactive) | > 100 µM (inactive) | 45.7 µM (inactive) | 32 µM (inactive) | > 100 µM (inactive) | > 100 µM (inactive) | – | > 100 µM (inactive) | – | 51.3 µM (inactive) | 76.7 µM (inactive) | > 100 µM (inactive) | > 100 µM (inactive) | > 100 µM (inactive) | > 100 µM (inactive) | 43 µM (inactive) | – |
| C=C1C(=O)OC2/C=C(\C)C(O)/C=C\C(C)(O)CC(OC(=O)/C(C)=C/C)C12 (stereo not drawn) | 20.8 µM (inactive) | > 100 µM (inactive) | 22.4 µM (inactive) | 15.3 µM (inactive) | 30.1 µM (inactive) | 16.3 µM (inactive) | > 100 µM (inactive) | 40.6 µM (inactive) | > 61 µM (inactive) | – | 44.6 µM (inactive) | – | > 39.5 µM (inactive) | 51.3 µM (inactive) | > 100 µM (inactive) | > 70.1 µM (inactive) | 33.1 µM (inactive) | > 100 µM (inactive) | 9.64 µM (inactive) | – |
| O=C1c2ccc3c4ccccc4n(Cc4ccccc4)c3c2C(=O)N1c1ccccc1 | 13.8 µM (inactive) | 17.3 µM (inactive) | > 35.7 µM (inactive) | 3.52 µM (inactive) | 17.5 µM (inactive) | 16.4 µM (inactive) | > 36.9 µM (inactive) | 15.5 µM (inactive) | 58.7 µM (inactive) | – | 8.3 µM (inactive) | – | 9.02 µM (inactive) | 16.1 µM (inactive) | 24.9 µM (inactive) | 16.5 µM (inactive) | 16.4 µM (inactive) | 17.8 µM (inactive) | 6.07 µM (inactive) | – |
| CCOC(=O)CC(NCc1ccc(/N=C/c2nc3ccc(C(F)(F)F)cc3nc2-c2ccccc2)cc1)C(=O)OCC (stereo not drawn) | 15.3 µM (inactive) | > 100 µM (inactive) | > 58.6 µM (inactive) | > 100 µM (inactive) | > 69.5 µM (inactive) | > 55.5 µM (inactive) | 29 µM (inactive) | > 100 µM (inactive) | > 100 µM (inactive) | – | > 100 µM (inactive) | – | > 100 µM (inactive) | > 78.7 µM (inactive) | 29 µM (inactive) | > 100 µM (inactive) | > 100 µM (inactive) | > 63.1 µM (inactive) | > 100 µM (inactive) | – |
| O=[N+]([O-])c1ccc(-c2csc(=[N+]3CCCCC3)s2)cc1 | 34.4 µM (inactive) | 1.93 µM (inactive) | 40.6 µM (inactive) | 2.26 µM (inactive) | 18 µM (inactive) | 28.3 µM (inactive) | 3.1 µM (inactive) | 4.13 µM (inactive) | 13.6 µM (inactive) | – | 18.5 µM (inactive) | – | 20.2 µM (inactive) | 5.85 µM (inactive) | 37.7 µM (inactive) | > 68.1 µM (inactive) | 6.04 µM (inactive) | 4.48 µM (inactive) | 9.71 µM (inactive) | – |
| NC(=S)NNC(=S)NC(=O)c1ccco1 | > 10 µM (inactive) | > 10 µM (inactive) | > 10 µM (inactive) | – | > 10 µM (inactive) | > 10 µM (inactive) | > 10 µM (inactive) | > 10 µM (inactive) | > 10 µM (inactive) | > 10 µM (inactive) | > 10 µM (inactive) | – | > 10 µM (inactive) | > 10 µM (inactive) | > 10 µM (inactive) | > 10 µM (inactive) | > 10 µM (inactive) | > 10 µM (inactive) | > 10 µM (inactive) | > 10 µM (inactive) |
| C=CCNC1=C2C[C@@H](C)C[C@@H](OC)[C@H](OC(=O)CCN)[C@H](C)/C=C(\C)[C@@H](OC(N)=O)[C@H](OC)/C=C\C=C(/C)C(=O)NC(=CC1=O)C2=O | 4.38 µM (inactive) | 3.4 µM (inactive) | 12.6 µM (inactive) | 0.718 µM (active) | 8.75 µM (inactive) | 3.53 µM (inactive) | 3.53 µM (inactive) | 1.79 µM (inactive) | 2.77 µM (inactive) | 76.2 µM (inactive) | 8.93 µM (inactive) | – | 6.08 µM (inactive) | 4.12 µM (inactive) | 1.35 µM (inactive) | 11.2 µM (inactive) | 0.409 µM (active) | 4.74 µM (inactive) | 3.99 µM (inactive) | 5.19 µM (inactive) |
| CCOC(=O)C1OC(=O)CC1C1(C(=O)OCC)C=CC(=O)O1 (stereo not drawn) | > 100 µM (inactive) | > 100 µM (inactive) | > 100 µM (inactive) | > 100 µM (inactive) | > 100 µM (inactive) | > 100 µM (inactive) | > 100 µM (inactive) | > 100 µM (inactive) | 17.9 µM (inactive) | > 100 µM (inactive) | > 100 µM (inactive) | > 100 µM (inactive) | > 100 µM (inactive) | > 100 µM (inactive) | > 100 µM (inactive) | > 100 µM (inactive) | > 100 µM (inactive) | > 100 µM (inactive) | > 100 µM (inactive) | – |
| COc1cc(C2SC(=N)Nc3c2c(C)nn3C(=O)Cc2ccccc2)cc(OC)c1OC (stereo not drawn) | > 100 µM (inactive) | > 100 µM (inactive) | > 100 µM (inactive) | > 100 µM (inactive) | > 100 µM (inactive) | > 100 µM (inactive) | > 100 µM (inactive) | > 100 µM (inactive) | > 100 µM (inactive) | – | – | > 100 µM (inactive) | > 100 µM (inactive) | > 100 µM (inactive) | > 100 µM (inactive) | > 100 µM (inactive) | > 100 µM (inactive) | > 100 µM (inactive) | > 100 µM (inactive) | > 100 µM (inactive) |
| O=C(Nc1ccccc1Cl)c1cc(S(=O)(=O)Nc2n[nH]c(=O)n2-c2ccccc2)c(S)cc1Cl | > 100 µM (inactive) | – | – | > 100 µM (inactive) | > 100 µM (inactive) | > 10 µM (inactive) | > 100 µM (inactive) | > 100 µM (inactive) | > 100 µM (inactive) | > 100 µM (inactive) | > 100 µM (inactive) | – | > 100 µM (inactive) | > 100 µM (inactive) | > 100 µM (inactive) | > 100 µM (inactive) | > 100 µM (inactive) | > 100 µM (inactive) | – | > 100 µM (inactive) |
| O=C(Nc1ccc(C(F)(F)F)cc1[N+](=O)[O-])C(=O)C1NC(=S)NC1=O (stereo not drawn) | > 100 µM (inactive) | > 100 µM (inactive) | > 100 µM (inactive) | 13.5 µM (inactive) | 4.86 µM (inactive) | > 100 µM (inactive) | > 100 µM (inactive) | > 100 µM (inactive) | > 100 µM (inactive) | – | > 100 µM (inactive) | – | > 100 µM (inactive) | > 100 µM (inactive) | > 100 µM (inactive) | > 100 µM (inactive) | > 100 µM (inactive) | > 100 µM (inactive) | > 100 µM (inactive) | – |
| C/C(COc1ccccc1)=N\NC(N)=S | > 100 µM (inactive) | > 100 µM (inactive) | > 100 µM (inactive) | > 100 µM (inactive) | > 100 µM (inactive) | > 100 µM (inactive) | > 100 µM (inactive) | 68.1 µM (inactive) | > 10 µM (inactive) | – | > 100 µM (inactive) | – | > 100 µM (inactive) | 91.4 µM (inactive) | > 100 µM (inactive) | > 100 µM (inactive) | 61.9 µM (inactive) | > 100 µM (inactive) | > 100 µM (inactive) | – |
| C[N+](C)(C)CC(=O)N/N=C(\C(=O)NC1=C(Cl)C(=O)c2ccccc2C1=O)C(C#N)c1csc(-c2ccc([N+](=O)[O-])cc2)n1 (stereo not drawn) | > 100 µM (inactive) | > 100 µM (inactive) | > 100 µM (inactive) | > 100 µM (inactive) | 48.2 µM (inactive) | > 100 µM (inactive) | > 100 µM (inactive) | > 100 µM (inactive) | > 100 µM (inactive) | – | > 100 µM (inactive) | – | > 100 µM (inactive) | > 100 µM (inactive) | > 100 µM (inactive) | > 100 µM (inactive) | > 100 µM (inactive) | > 100 µM (inactive) | > 100 µM (inactive) | – |
| C[C@H]1CCC/C=C/[C@@H]2C[C@H](O)C[C@H]2[C@H](O)/C=C/C(=O)O1 [BREFELDIN A] | < 10 nM (active) and 13.2 nM (active) | – | – | 14.3 nM (active) and 16.4 nM (active) | – | 18.2 nM (active) and 23.3 nM (active) | – | 10.1 nM (active) and 10.2 nM (active) | – | < 14.9 nM (active) and 27.4 nM (active) | < 14.7 nM (active) and 24.7 nM (active) | – | – | < 10 nM (active) and 5.83 nM (active) | 60.1 nM (active) and 44.1 nM (active) | 23.2 nM (active) and < 18.3 nM (active) | < 10 nM (active) and 15.8 nM (active) | – | 36.6 nM (active) and 71.5 nM (active) | – |
